Results reported in patent US12606569B2, “Alkaloid-containing compositions and uses thereof” (priority 2017, dated 2026).
Where two headings read alike, the source gives them in different places.

Key:
[1] = assay type: physicochemical; details: for chemical stability of the component in buffers / degradation of the component at pH 2 and 10: 1% w/w purified loline extract, 0.2M buffers; for chemical stability of the component in buffers: except pH 2 and 10; for degradation of the component at pH 2 and 10: starting at 24 h
Protocol: 1% w/w solutions of purified loline extract at various pH and 0.2M buffers were used in this investigation. The solutions were maintained at 54° C. (±1° C.) and 70° C. (±1° C.) and pH remained at the target pH (±0.2 pH units). Samples were taken periodically over a 2-3 week period and analysed by GC-FID to determine NFL strength.

[2] = assay type: physicochemical

Row | SMILES | chemical stability of the component in buffers [1] | degradation of the component at pH 2 and 10 [1] | stability on increasing or decreasing pH from pH 4 ([1]; 70° C.) | time after which the stability of NFL plateaus ([1]; 70° C., pH 2.6) | stability (degradation of NFL to loline) ([1]; 70° C., pH 4, acetic acid derived buffer, over 170 hours) | stability (degradation of NFL to loline) ([1]; 70° C., pH 4, citric acid buffer) | overall degradation rates ([2]; 50° C. compared with 70° C.) | conversion of NFL to loline, citric acid based system versus acetic acid derived buffer ([2]; both 50° C. and 70° C.)
1 | CC(=O)N(C)C1C2CN3CCC(O2)C13 (stereo not shown) [NAL, N-acetylloline] | chemically stable | small degradation |  |  |  |  |  | 
2 | CC(=O)NC1C2CN3CCC(O2)C13 (stereo not shown) [NANL, N-acetylnorloline] | chemically stable | small degradation |  |  |  |  |  | 
3 | CN(C=O)C1C2CN3CCC(O2)[C@H]13 (stereo partly shown) [NFL, N-formylloline] |  |  | significant decrease in stability | approximately 100 hours | greatest stability | lower stability | reduced | higher degradation
